Test results from patent publication US20230295201A1 (Gilead Sciences, Inc., priority 2020, published 2023).
Where two headings read alike, the source gives them in different places.

Key:
Type in all cases: cell-based
HRV1a = experiment: HRV1A HELA EC50 (cytopathic effect in H1-HeLa cells); conditions: 96 h, read-out: HRV1A HELA EC50
Procedure: H1-HeLa cells, cultured in complete RPMI 1640 medium containing 10% heat-inactivated FBS and 1% Penicillin/Streptomycin, were seeded in 96 well plates at 5000 cells/well one day prior to compound dosing and infection. The antiviral activity of each compound was measured in triplicate. Compounds were added directly to the cell cultures in serial 3-fold dilutions using the HP300 digital dispenser (Hewlett Packard, Palo Alto, CA) immediately prior to infection. The plates were transferred to BSL-2 containment and 100 μL of 1/4000 dilution of HRV1a virus stock was added to each well containing cells and serially diluted compounds. Each plate included 6 wells of infected untreated cells and 6 wells of cells containing 5 μM Rupintrivir that served as 0% and 100% virus inhibition control, respectively. Following the infection, test plates were incubated for 96 h in a tissue culture incubator set to 37° C./5% CO2. Following incubation, the H1-HeLa cells were removed from incubation and allowed to equilibrate to 25° C. Cell viability was determined by removing 100 μL of culture medium and adding 100 μL of Cell-Titer Glo viability reagent. The mixtures were incubated on a shaker for 10 minutes at 25° C., and the luminescence signal was quantified on an Envision luminescence plate reader.

HRV10 = HRV10 HELA EC50
HRV99 = HRV99 EC50
RSV A strain A2 = experiment: RSV HAE EC50 (intracellular RSV RNA by real-time PCR in HAE cells); conditions: human respiratory syncytial virus, 72 h, read-out: RSV HAE EC50
Procedure: HAE cells are cultured at the air-liquid interface and have an apical side that is exposed to the air and a basal side that is in contact with the medium. Prior to experimentation, HAE were removed from their agar-based shipping packaging and were acclimated to 37° C./5% CO2 overnight in 1 ml of HAE Assay medium (AIR-100-MM, Mattek Corp). HAE were prepared for infection by washing the apical surface twice with 400 μL of PBS (either utilizing direct pipetting methods or by running each transwell through a trough containing PBS) to remove the mucus layer. Apical chambers were drained of PBS and tapped gently onto absorbent material to remove as much PBS as possible. After washing, the cells were transferred to fresh HAE maintenance media containing 4-fold serially diluted compound, delivered to the basal side of the cell monolayer, and apically infected with 100 μL of a 1:600 dilution of RSV A strain A2 1000× stock (ABI, Columbia, MD, cat #10-124-000) in HAE assay medium for 3 hours at 37° C. in 5% CO2. The virus inoculum was removed and the apical surface of the cells was washed 3 times with PBS using either method previously described. The cells were then cultured in the presence of compound for 3 days at 37° C. Following the incubation, total RNA was extracted from the HAE cells using a MagMAX-96 Viral RNA isolation kit (Applied Biosystems, Foster City, CA, Cat #AM1836) and intracellular RSV RNA was quantified by real-time PCR. Approximately 25 ng of purified RNA was added to a PCR reaction mixture that contained 0.9 μM RSV N Forward and RSV N Reverse primers, 0.2 μM RSV N Probe and 1×Taqman RNA-to-Ct 1-Step Kit (Applied Biosystems, Foster City, CA, Cat #4392938). RNA levels were normalized using a Tagman GAPDH control primer set (Applied Biosystems, Foster City, CA, Cat #402869). Real-Time PCR Primers and Probe Used in the RSV A2 HAE Antiviral Assay: […]

C[C@H](NP(=O)(OC[C@@]1(C#N)O[C@@H](c2ccc3c(N)ncnn23)[C@H](O)[C@@H]1O)Oc1ccccc1)C(=O)OCC1CC1 (mixture of isomers) [Example 8, (2S)-cyclopropylmethyl 2-(((((2R,3S,4R,5S)-5-(4-aminopyrrolo[2,1-f][1,2,4]triazin-7-yl)-2-cyano-3,4-dihydroxytetrahydrofuran-2-yl)methoxy)(phenoxy)phosphoryl)amino)propanoate]
EC50 (HRV1a): 211 nM | EC50 (HRV10): 179 nM | EC50 (HRV99): 1340 nM

CC(C)OC(=O)[C@H](C)NP(=O)(OC[C@@]1(C#N)O[C@@H](c2ccc3c(N)ncnn23)[C@H](O)[C@@H]1O)Oc1ccccc1 (mixture of isomers) [Example 77, Isopropyl ((((2R,3S,4R,5S)-5-(4-aminopyrrolo[2,1-f][1,2,4]triazin-7-yl)-2-cyano-3,4-dihydroxytetrahydrofuran-2-yl)methoxy)(phenoxy)phosphoryl)-L-alaninate]
EC50 (HRV1a): 736 nM | EC50 (HRV10): 636 nM | EC50 (HRV99): 4940 nM

CCC(CC)COC(=O)[C@H](CC)NP(=O)(OC[C@@]1(C#N)O[C@@H](c2ccc3c(N)ncnn23)[C@H](O)[C@@H]1O)Oc1ccccc1 (mixture of isomers) [Example 88, (2S)-2-ethylbutyl 2-(((((2R,3S,4R,5S)-5-(4-aminopyrrolo[2,1-f][1,2,4]triazin-7-yl)-2-cyano-3,4-dihydroxytetrahydrofuran-2-yl)methoxy)(phenoxy)phosphoryl)amino)butanoate]
EC50 (HRV1a): 581 nM | EC50 (HRV10): 608 nM | EC50 (HRV99): 4540 nM

CC[C@H](NP(=O)(OC[C@@]1(C#N)O[C@@H](c2ccc3c(N)ncnn23)[C@H](O)[C@@H]1O)Oc1ccccc1)C(=O)OC1CCCCC1 (mixture of isomers) [Example 103, (2S)-cyclohexyl 2-(((((2R,3S,4R,5S)-5-(4-aminopyrrolo[2,1-f][1,2,4]triazin-7-yl)-2-cyano-3,4-dihydroxytetrahydrofuran-2-yl)methoxy)(phenoxy)phosphoryl)amino)butanoate]
EC50 (HRV1a): 1020 nM | EC50 (HRV10): 916 nM | EC50 (HRV99): 4740 nM

CCCCCCCCCCCC(=O)OCCNP(=O)(OC[C@@]1(C#N)O[C@@H](c2ccc3c(N)ncnn23)[C@H](O)[C@@H]1O)Oc1ccccc1 (mixture of isomers) [Example 181, 2-(((((2R,3S,4R,5S)-5-(4-aminopyrrolo[2,1-f][1,2,4]triazin-7-yl)-2-cyano-3,4-dihydroxytetrahydrofuran-2-yl)methoxy)(phenoxy)phosphoryl)amino)ethyl dodecanoate]
EC50 (RSV A strain A2; HAE): 212 nM

C[C@H](N[P@](=O)(OC[C@@]1(C#N)O[C@@H](c2ccc3c(N)ncnn23)[C@H](O)[C@@H]1O)Oc1ccccc1)C(=O)O[C@H]1CC[C@H](C(F)(F)F)CC1 (single isomer, unassigned) [Example 18]
EC50 (RSV A strain A2; HAE): 27 nM

C[C@H](N[P@](=O)(OC[C@@]1(C#N)O[C@@H](c2ccc3c(N)ncnn23)[C@H](O)[C@@H]1O)Oc1ccccc1)C(=O)O[C@H]1CC[C@H](C(C)(C)C)CC1 (single isomer, unassigned) [Example 22]
EC50 (RSV A strain A2; HAE): 19 nM

CCC(CC)COC(=O)[C@H](C)N[P@](=O)(OC[C@@]1(C#N)O[C@@H](c2ccc3c(N)ncnn23)[C@H](O)[C@@H]1O)Oc1ccccc1 (single isomer, unassigned) [Example 25]
EC50 (RSV A strain A2; HAE): 152 nM

CCCCCCCCCCCCCCCCOCCCOP(=O)(O)OC[C@@]1(C#N)O[C@@H](c2ccc3c(N)ncnn23)[C@H](O)[C@@H]1O [Example 149, ((2R,3S,4R,5S)-5-(4-aminopyrrolo[2,1-f][1,2,4]triazin-7-yl)-2-cyano-3,4-dihydroxytetrahydrofuran-2-yl)methyl (3-(hexadecyloxy)propyl) hydrogen phosphate]
EC50 (RSV A strain A2; HAE cells, RSV A2, 3 days): 188 nM

CCCCCCCCCCCCOC(=O)[C@H](C)NP(=O)(OC[C@@]1(C#N)O[C@@H](c2ccc3c(N)ncnn23)[C@H](O)[C@@H]1O)Oc1ccccc1 (stereo partly drawn) [Example 191, dodecyl ((((2R,3S,4R,5S)-5-(4-aminopyrrolo[2,1-f][1,2,4]triazin-7-yl)-2-cyano-3,4-dihydroxytetrahydrofuran-2-yl)methoxy)(phenoxy)phosphoryl)-L-alaninate]
EC50 (RSV A strain A2; HAE): 11 nM
